The test system of one test is IL1-β release upon NLRP3 activation in peripheral blood mononuclear cells (PBMC). In words: PBMC IC50 determination assay (IL1-β release, ELISA). The conditions noted are these: Homo sapiens, PBMC, read-out: PBMCs, IC50, µM. Format: cell-based. How it is done:
PBMC IC50 determination assay
The compounds of the present invention were tested for their inhibitory activity against IL1-β release upon NLRP3 activation in peripheral blood mononuclear cells (PBMC).
PBMC were isolated from buffy coats by density gradient centrifugation on Histopaque-1077 (Sigma, cat no. 10771). Isolated cells were seeded into the wells of a 96-well plate and incubated for 3 h with lipopolysaccharide (LPS). Following medium exchange, the compounds of the present invention were added (a single compound per well) and the cells were incubated for 30 min. Next, the cells were stimulated with nigericin (10 µM) for 1 h and the cell culture media from the wells were collected for further analysis.
The release of IL1-β into the media was determined by a quantitative detection of IL1-β in the media using an IL-1β enzyme-linked immunosorbent assay (ELISA) Ready-SET-Go!, eBioscience cat. No. 88-7261-88. Briefly, in a first step, high affinity binding plates (Coming, Costar 9018 or NUNC Maxisorp Cat No. 44-2404) were coated overnight at 4°C with specific capture antibody included in the kit (anti-human IL-1β ref. 14-7018-68). Subsequently, plates were blocked with blocking buffer for 1 h at room temperature (rt) and after washing with a buffer (PBS with 0,05% Tween-20) incubated with protein standard and culture media. After 2 h of incubation at rt, plates were washed and incubated with biotinylated detection antibody included in the kit (anti-human IL-1β Biotin ref. 33-7110-68) for 1 h at rt. Plates were washed and incubated with HRP-streptavidin for 30 min at rt and washed again. The signal was developed after addition of 3,39,5,59-tetramethylbenzidine-peroxidase (TMB) until color appeared and the reaction was stopped by 2 N H2SO4. A microplate spectrophotometer (BioTek) was used to detect signals with […]. The detection range of IL1-β ELISA was […].
Background: An ELISA detects its analyte on a solid surface through an enzyme-linked reagent.
For `O=C(Nc1c2c(cc3c1CCC3)CCC2)NS(=O)(=O)n1ccc2ccccc21` [Example 1A], the IC50 (in general, the concentration needed to halve the response being measured) came out at 1.05 µM.

`CC(=O)c1ccn(S(=O)(=O)NC(=O)Nc2c3c(cc4c2CCC4)CCC3)c1` [Example 1B]: the IC50 came to 1.27 µM.

On to `COC(=O)c1ccn(S(=O)(=O)NC(=O)Nc2c3c(cc4c2CCC4)CCC3)c1` [Example 1C], for which the IC50 came to 4.07 µM.

In the case of `O=C(Nc1c2c(cc3c1CCC3)CCC2)NS(=O)(=O)n1ccc2ncccc21` [Example 1D], the IC50 was 10.5 µM.

`O=C(Nc1c2c(cc3c1CCC3)CCC2)NS(=O)(=O)n1ncc2ccccc21` [Example 1E]: the IC50 was found to be 1 µM.

On to `O=C(Nc1c2c(cc3c1CCC3)CCC2)NS(=O)(=O)n1ccc(C2CC2)c1` [Example 1F], for which the IC50 turned out to be 0.4 µM.

For the compound `CCC(=O)c1ccn(S(=O)(=O)NC(=O)Nc2c3c(cc4c2CCC4)CCC3)c1` [Example 1G], the concentration for half-maximal inhibition (IC50) came to 5 µM.

With `O=C(Nc1c2c(cc3c1CCC3)CCC2)NS(=O)(=O)n1ccc2ccncc21` [Example 1H], the IC50 worked out at 4.93 µM.

For the compound `CC(=O)c1ccn(S(=O)(=O)NC(=O)Nc2c3c(c(Cl)c4c2CCC4)CCC3)c1` [Example 1I], the IC50 is 0.91 µM.

With `O=C(Nc1c2c(cc3c1CCC3)CCC2)NS(=O)(=O)n1ccc([N+](=O)[O-])c1` [Example 1J], the IC50 was 26.8 µM.

Consider `O=C(Nc1c2c(cc3c1CCC3)CCC2)NS(=O)(=O)n1cccc1` [Example 1K], for which the IC50 stood at 1.4 µM.

For the compound `O=C(Nc1c2c(cc3c1CCC3)CCC2)NS(=O)(=O)n1ccc(C(=O)C(F)(F)F)c1` [Example 1L], the IC50 came out at 0.074 µM.

As to `O=C(Nc1c2c(cc3c1CCC3)CCCC2)NS(=O)(=O)n1ncc2ccccc21` [Example 1M], the IC50 was 4.62 µM.

Take `O=C(Nc1cc2c(c3c1CCCC3)CCC2)NS(=O)(=O)n1ncc2ccccc21` [Example 1N, 3-{1H,2H,3H,6H,7H,8H,9H -cyclopenta[a]naphthalen-5-yl}-1-(H-indazole-1-sulfonyl)-1-sodiourea]: the IC50 is 2.03 µM.

In the case of `O=C(Nc1c2c(cc3c1CCC3)CCC2)NS(=O)(=O)n1cc2c(c1)C(=O)CC2` [Example 1O], the IC50 was 4.13 µM.

`O=C(Nc1c2c(cc3c1CCC3)CCC2)NS(=O)(=O)n1ccc(C(=O)c2ccccc2)c1` [Example 1P]: the IC50 is 2.91 µM.

`O=C(Nc1cc2c(c3c1CCC3)CCC2)NS(=O)(=O)n1ccc(C(=O)C(F)(F)F)c1` [Example 1Q]: the IC50 came to 0.33 µM.

For the compound `CC(=O)c1cn(S(=O)(=O)NC(=O)Nc2c3c(cc4c2CCC4)CCC3)cc1-c1ccccc1` [Example 1T, 3=[(3-acetyl-4-phenyl-1H-pyrrol-1-yl)sulfonyl]-1-(1,2,3,5,6,7-hexahydro-s-indacen-4-yl)-3-sodiourea propan-2-ol solvate], the IC50 was 4.76 µM.

In the case of `CC(C)(O)c1ccn(S(=O)(=O)NC(=O)Nc2c3c(cc4c2CCC4)CCC3)c1` [Example 3A], the IC50 was determined as 0.66 µM.

Still in this test, the particulars now being: Homo sapiens; PBMC primed 3 h with LPS, compound 30 min, nigericin (10 µM) 1 h; IL1-β in media by ELISA; values with * are mean values based on 2-6 measurements, all others single measurements; read-out: PBMCs, IC50.
Turning to `O=C(Nc1c2c(cc3c1CCC3)CCC2)NS(=O)(=O)n1cc2c(c1)C(=O)CCC2` [Example 1R, ammonium [(1,2,3,5,6,7-hexahydro-s-indacen-4-yl)carbamoyl][(4-oxo-4,5,6,7-tetrahydro-2H-isoindol-2-yl)sulfonyl]azanide], the IC50 amounted to 1.27 µM.

As to `Cc1cccn1S(=O)(=O)NC(=O)Nc1c2c(cc3c1CCC3)CCC2` [Example 1S, ammonium [(1,2,3,5,6,7-hexahydro-s-indacen-4-yl)carbamoyl][(2-methyl-1H-pyrrol-1-yl)sulfonyl]azanide], the IC50 was 0.27 µM.

Consider `O=C(Nc1cc2c(c3c1CCC3)CCC2=O)NS(=O)(=O)n1ccc(C(=O)C(F)(F)F)c1` [Example 1U, ammonium [(6-oxo-1,2,3,6,7,8-hexahydroas-indacen-4-yl)carbamoyl]({[3-(trifluoroacetyl)-1H-pyrrol-1-yl]sulfonyl})azanide], for which the IC50 turned out to be 1.82 µM.

In the case of `CC(O)c1ccn(S(=O)(=O)NC(=O)Nc2c3c(cc4c2CCC4)CCC3)c1` (stereo not shown) [Example 2A, 3-(1,2,3,5,6,7-hexahydro-s-indacen-4-yl)-1-{[3-(1-hydroxyethyl)-1H-pyrrol-1-yl]sulfonyl}urea], the concentration for half-maximal inhibition (IC50) is 1.97 µM.

For `O=C(Nc1c2c(cc3c1CCC3)CCC2)NS(=O)(=O)n1ccc(C(O)C(F)(F)F)c1` (stereo not shown) [Example 2B, 3-(1,2,3,5,6,7-hexahydro-s-indacen-4-yl)-1-{[3-(2,2,2-trifluoro-1-hydroxyethyl)-1H-pyrrol-1-yl]sulfonyl}urea], the IC50 came out at 0.98 µM.

For `C=C(C)c1ccn(S(=O)(=O)NC(=O)Nc2c3c(cc4c2CCC4)CCC3)c1` [Example 4A, 3-(1,2,3,5,6,7-hexahydro-s-indacen-4-yl)-1-{[3-(prop-1-en-2-yl)-1H-pyrrol-1-yl]sulfonyl}urea], the IC50 amounted to 0.81 µM.

Source of the values: patent EP3272739A1 (NodThera Limited, priority 2016, dated 2018).
